We go through nine compounds from US20240148821A1, “PHARMACEUTICAL USE OF CYCLIC PEPTIDE COMPOUND” (CHUGAI SEIYAKU KABUSHIKI KAISHA, priority 2021, published 2024).

The structures appear in SMILES notation. Numbered stars: 1 amine (or outer) side, 2 acyl side, 3 side chain; on linkers, the order of the positions; unused ones are H or OH. Bridge positions count the residues as written; N and C are the ends. Square brackets hold non-standard residues; d marks the D form. Peptide text beside a SMILES is read from it. * marks the point of attachment. hPhe(3-Cl-4-CF3) = N[C@@H](CCc1ccc(C(F)(F)F)c(Cl)c1)C(=O)O; hPhe(4-CF3) = N[C@@H](CCc1ccc(C(F)(F)F)cc1)C(=O)O; ACHC(1R,2R) = O=C([C@@H]1CCCC[C@H]1N[*:1])[*:2]; NMePhe(4-Cl) = CN[C@@H](Cc1ccc(Cl)cc1)C(=O)O; NMeGly(cPent) = CN[C@H](C(=O)O)C1CCCC1; NMeCha = CN[C@@H](CC1CCCCC1)C(=O)O; NMeChg = CN[C@H](C(=O)O)C1CCCCC1; NMeT = CN[C@H](C(=O)O)[C@@H](C)O; N(CH2CH2)2CF2 = FC1(F)CCN(*)CC1; NMeD = CN[C@@H](CC(=O)O)C(=O)O; NMeL = CN[C@@H](CC(C)C)C(=O)O; NMeV = CN[C@H](C(=O)O)C(C)C; d(β3hA) = C[C@@H](N)CC(=O)O; NMeS = CN[C@@H](CO)C(=O)O; dPip = O=C(O)[C@H]1CCCCN1; Morpholide = C1CN(*)CCO1; NMeA = CN[C@@H](C)C(=O)O; Piperidide = C1CCN(*)CC1; Thz = O=C(O)[C@@H]1CSCN1; Ac5c = NC1(C(=O)O)CCCC1; Aze = O=C(O)[C@@H]1CCN1; CH2CMe2OH = CC(C)(O)C*; Aib = CC(C)(N)C(=O)O; Cyclopropyl = C1CC1*; Bn = c1ccc(C*)cc1; Sar = CNCC(=O)O

The experiment addresses protein-protein interaction between Kras and SOS1 (biotin-tagged human Kras loaded with GDP, His-tagged human SOS1) (Homo sapiens (Human), UniProt P01116, G12D). Briefly: Protein-protein interaction inhibition between Kras and SOS1 (KrasG12D-SOS PPI) using AlphaScreen.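 Also: kras produced in E. coli, Ni-coupled donor beads and streptavidin acceptor beads, excitation 680 nm with emission detected at 520–620 nm via singlet oxygen transfer.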 Format: biochemical. As to conditions: AlphaScreen; biotin-tagged human Kras loaded with GDP, His-tagged human SOS1; read-out: KRAS G12D-SOS PPI IC50.
As for `CC[C@H](C)[C@@H]1NC(=O)[C@H](C)N(C)C(=O)C[C@@H](C)NC(=O)[C@H](CC(C)C)N(C)C(=O)C(C)(C)NC(=O)[C@H](CC(C)C)N(C)C(=O)[C@H](CCc2ccc(C(F)(F)F)cc2)NC(=O)CN(C)C(=O)[C@H]([C@@H](C)OCc2ccccc2)N(C)C(=O)CN(C)C(=O)CN(C)C1=O` [Compound 1067] (cyclo([Aib][NMeL][d(β3hA)][NMeA]I[Sar][Sar][NMeT](Bn)[Sar][hPhe(4-CF3)][NMeL])), the IC50 is 290 nM. The result for `CC[C@H](C)[C@@H]1NC(=O)[C@H](C(C)C)N(C)C(=O)C[C@@H](C)NC(=O)[C@H](C(C)C)N(C)C(=O)C2(CCCC2)NC(=O)[C@H](CC(C)C)N(C)C(=O)[C@H](CCc2ccc(C(F)(F)F)c(Cl)c2)NC(=O)CN(C)C(=O)[C@H](Cc2ccc(Cl)cc2)N(C)C(=O)CN(C)C(=O)CN(C)C1=O` [Compound 1069] (cyclo([Ac5c][NMeV][d(β3hA)][NMeV]I[Sar][Sar][NMePhe(4-Cl)][Sar][hPhe(3-Cl-4-CF3)][NMeL])) reads 17 nM. For `CC[C@H](C)[C@@H]1NC(=O)[C@H](CC(C)C)N(C)C(=O)C[C@@H](C(=O)N2CCCCC2)N(C)C(=O)[C@H](C(C)C)N(C)C(=O)[C@H](C(C)C)NC(=O)[C@H](CC(=O)N2CCC(F)(F)CC2)N(C)C(=O)[C@H](CCc2ccc(C(F)(F)F)c(Cl)c2)NC(=O)CN(C)C(=O)[C@H](CC2CCCCC2)N(C)C(=O)CN(C)C(=O)CN(C)C1=O` [Compound 1078] ([NMeL]I[Sar][Sar][NMeCha][Sar][hPhe(3-Cl-4-CF3)][NMeD](N(CH2CH2)2CF2)V[NMeV][NMeD]-Piperidide; lactam N-11), the IC50 worked out at 190 nM. Turning to `CC[C@H](C)[C@@H]1NC(=O)[C@H](CC(C)C)N(C)C(=O)C[C@@H](C(=O)N2CCCCC2)N(C)C(=O)[C@H](C2CCCCC2)N(C)C(=O)C2(CCCC2)NC(=O)[C@@H]2CSCN2C(=O)[C@H](CCc2ccc(C(F)(F)F)c(Cl)c2)NC(=O)CN(C)C(=O)[C@H](CC2CCCCC2)N(C)C(=O)CN(C)C(=O)CN(C)C1=O` [Compound 1093] ([NMeL]I[Sar][Sar][NMeCha][Sar][hPhe(3-Cl-4-CF3)][Thz][Ac5c][NMeChg][NMeD]-Piperidide; lactam N-11), the IC50 was found to be 0.73 nM. `CC[C@H](C)[C@@H]1NC(=O)[C@H](CC(C)C)N(C)C(=O)C[C@@H](C)NC(=O)[C@H](C(C)C)N(C)C(=O)C2(CCCC2)NC(=O)[C@@H]2CCCN2C(=O)[C@H](CCc2ccc(C(F)(F)F)c(Cl)c2)NC(=O)CN(C)C(=O)[C@H](CC2CCCCC2)N(C)C(=O)[C@@H]2CCN2C(=O)[C@H](COC2CC2)N(C)C1=O` [Compound 1102] (cyclo([Ac5c][NMeV][d(β3hA)][NMeL]I[NMeS](Cyclopropyl)[Aze][NMeCha][Sar][hPhe(3-Cl-4-CF3)]P)): the IC50 came to 160 nM. As for `CC[C@H](C)[C@@H]1NC(=O)[C@H](C)N(C)C(=O)C[C@@H](C(=O)N2CCCCC2)N(C)C(=O)[C@H](C(C)C)N(C)C(=O)C2(CCCC2)NC(=O)[C@@H]2CCCN2C(=O)[C@H](CCc2ccc(C(F)(F)F)c(Cl)c2)NC(=O)[C@H]2CCCCN2C(=O)[C@H](CC2CCCCC2)N(C)C(=O)CN(C)C(=O)CN(C)C1=O` [Compound 1118] ([NMeA]I[Sar][Sar][NMeCha][dPip][hPhe(3-Cl-4-CF3)]P[Ac5c][NMeV][NMeD]-Piperidide; lactam N-11), the 50% inhibitory concentration (IC50) amounted to 200 nM. On to `CC[C@H](C)[C@@H]1NC(=O)[C@H](CC(C)C)N(C)C(=O)C[C@@H](C)NC(=O)[C@H](C(C)C)N(C)C(=O)C2(CCCC2)NC(=O)[C@@H]2CCCN2C(=O)[C@H](CCc2ccc(C(F)(F)F)c(Cl)c2)NC(=O)CN(C)C(=O)[C@H](CC2CCCCC2)N(C)C(=O)[C@@H]2CCN2C(=O)[C@H](COCC(C)(C)O)N(C)C1=O` [Compound 1122] (cyclo([Ac5c][NMeV][d(β3hA)][NMeL]I[NMeS](CH2CMe2OH)[Aze][NMeCha][Sar][hPhe(3-Cl-4-CF3)]P)), for which the IC50 is 67 nM.

For `CC[C@H](C)[C@@H]1NC(=O)[C@H](C(C)C)NC(=O)[C@@H]2CCCC[C@H]2NC(=O)[C@H](CC(C)C)N(C)C(=O)C2(CCCC2)NC(=O)[C@H](CC(C)C)N(C)C(=O)[C@H](CCc2ccc(C(F)(F)F)cc2)NC(=O)CN(C)C(=O)[C@H](Cc2ccc(Cl)cc2)N(C)C(=O)CN(C)C(=O)CN(C)C1=O` [Compound 1126] (cyclo([Ac5c][NMeL][ACHC(1R,2R)]VI[Sar][Sar][NMePhe(4-Cl)][Sar][hPhe(4-CF3)][NMeL])), the IC50 turned out to be 250 nM. Turning to `CC[C@H](C)[C@@H]1NC(=O)[C@H](CC(C)C)N(C)C(=O)C[C@@H](C(=O)N2CCOCC2)N(C)C(=O)[C@H](C2CCCC2)N(C)C(=O)C2(CCCC2)NC(=O)[C@@H]2CCCN2C(=O)[C@H](CCc2ccc(C(F)(F)F)c(Cl)c2)NC(=O)CN(C)C(=O)[C@H](CC2CCCCC2)N(C)C(=O)[C@@H]2CCN2C(=O)[C@H](C)NC1=O` [Compound 1137] ([NMeL]IA[Aze][NMeCha][Sar][hPhe(3-Cl-4-CF3)]P[Ac5c][NMeGly(cPent)][NMeD]-Morpholide; lactam N-11), the IC50 came out at 4.6 nM.

A word on the IC50: it is the point on the concentration scale where inhibition reaches its midpoint.
